Consider three compounds from ChEMBL document CHEMBL2062458, “Cyclic heptapeptides, cordyheptapeptides C-E, from the marine-derived fungus Acremonium persicinum SCSIO 115 and their cytotoxic activities” (J Nat Prod, 2012).

Peptide text beside a SMILES is read from it. Bounds are passed on as bounds.

Common to all, as to format: functional, cell-based
For assay [1], the system named is NCI-H460. The experiment in a line: Cytotoxicity against human NCI-H460 cells after 72 hrs by sulforhodamine B assay. As to conditions: NCI-H460, 72 h.
Assay [2] relates to MCF7. As to the kind of experiment: Cytotoxicity against human MCF7 cells after 72 hrs by sulforhodamine B assay. Particulars: MCF7, 72 h.
Assay [3] deals with SF-268. The experiment in a line: Cytotoxicity against human SF268 cells after 72 hrs by sulforhodamine B assay. As to conditions: SF-268, 72 h.

Take `CC(C)C[C@@H]1NC(=O)[C@H](C(C)C)NC(=O)[C@H](Cc2ccc(O)cc2)N(C)C(=O)[C@H](Cc2ccccc2)NC(=O)CN(C)C(=O)[C@@H]2CCCN2C(=O)[C@@H](Cc2ccccc2)N(C)C1=O` [Cordyheptapeptide C] (HELM PEPTIDE1{F.[meY].V.L.[CN([C@H](Cc1ccccc1)C(=O)[*:2])[*:1]].P.[Sar]}$PEPTIDE1,PEPTIDE1,1:R1-7:R2$$$V2.0): the IC50 in assay [1] amounted to 11.6 µM; in assay [2] it was 3 µM; in assay [3] it was 3.7 µM.

Take `CC(C)C[C@@H]1NC(=O)[C@H](C(C)C)NC(=O)[C@H](Cc2ccc(O)cc2)N(C)C(=O)[C@H](Cc2ccccc2)NC(=O)CN(C)C(=O)[C@@H]2CCCN2C(=O)[C@@H](Cc2ccc(O)cc2)N(C)C1=O` [Cordyheptapeptide D]: the IC50 in assay [1] is greater than 100 µM; in assay [2] it was 82.7 µM; in assay [3], 45.6 µM.

Turning to `CC[C@@H](C)[C@@H]1NC(=O)[C@H](Cc2ccc(O)cc2)N(C)C(=O)[C@H](Cc2ccccc2)NC(=O)CN(C)C(=O)[C@@H]2CCCN2C(=O)[C@@H](Cc2ccc(O)cc2)N(C)C(=O)[C@H](CC(C)C)NC1=O` [Cordyheptapeptide E], the 50% inhibitory concentration (IC50) in assay [1] was 4.5 µM; in assay [2], 2.7 µM; in assay [3] it was 3.2 µM.
